# Reference: patent US10265299B2, “Composition for promoting hair growth and/or hair restoration containing psoralidin” (Amorepacific Corporation, priority 2015, dated 2019)
# Experiments:
# [1] = tested on: hair follicle; test: Culture of hair follicle organ and observation of hair follicle cycle; format: cell-based; conditions: psoralidin 1, 10 μM vs samples without psoralidin treatment; human hair follicle organ culture
# Experimental: For the experiment, a hair transplant was performed to a person with a symptom of partial hair loss. Hair follicle samples of 4 groups each having 15 hair follicles were prepared with remaining follicle samples. William's E medium (Gibco, NY, USA) ) including 500 μl culture medium (2 mM L-glutamine (PAA, Coelbe, Germany), 10 μg/ml insulin, 10 ng/ml hydrocortisone (Sigma, St Louis, Mo.), 0.1% Fungizone (Gibco, NY, USA), 10 μg/ml streptomycin, and 100 U/ml penicillin (Gibco, NY, USA) was dispensed into a 24 well plate (Nunc, Wiesbaden, Germany). Then, the cells were cultured at a density of 5 to 6 cells per well on 500 ul of William's E medium (Gibco, NY, USA).
# The cultured cell samples were treated with psoralidin at varying concentrations (0, 1, 10 μM). A sample not treated with psoralidin was used as a control and the medium was changed every 2 to 3 days. After the treatment with psoralidin, the hair follicle was photographed using a stereomicroscope (Dongwon CNS, Korea), and the life cycle of Image hair follicle was classified and schematized.
# [2] = tested on: protein kinase Akt; conditions: cited from earlier work
# [3] = tested on: NIH3T3 (WNT) cells; test: Measurement of hair follicle stem cell activity (WNT/β-catenin luciferase assay); format: cell-based; conditions: psoralidin 0, 0.01, 0.1, 1, 10 μM for 24 hours; ONE-Glo reagent
# Experimental: NIH3T3 (WNT) cells, which are hair follicle stem cells, were seeded in a 96 well plates (Nunc, Wiesbaden, Germany) at a density of 10000 cells/well and cultured for 24 hours (5% CO2, 37° C.). Then, psoralidin was treated at varying concentrations (0, 0.01, 0.1, 1, 10 μM) for 24 hours. 100 μl of ONE-Glo reagent (Promega, Madison, Wis., USA) was added to each well of the 96-well plate and reacted for 3 minutes . After the reaction, the activity of stem eel Is was measured with a luminometer Victor (PerkinElmer, Waltham, Mass., USA).
# [4] = tested on: CRH (Corticotropin-releasing hormone) and corticosterone; conditions: fed to animals; cited from earlier work
# [5] = tested on: androgen-independent prostate cancer cells; conditions: in vitro and in vivo; cited from earlier work
smiles,measurement,setting,value
CC(C)=CCc1cc2c(cc1O)oc(=O)c1c3ccc(O)cc3oc21 [psoralidin],speed of the progression to the catagen stage,[1],significantly delayed
same,time remaining in the anagen stage of the hair follicle cycle,[1],remained longer in the anagen stage
same,phosphorylation of protein kinase Akt,[2],inhibits the phosphorylation of protein kinase Akt
same,"activity of hair follicle stem cells (luminescence, WNT/β-catenin luciferase)",[3],activated
same,levels of stress hormones CRH and corticosterone,[4],lower the levels of hormones of CRH (Corticotropin-releasing hormone) and corticosterone
same,growth of androgen-independent prostate cancer cells,[5],inhibiting the growth of androgen-independent prostate cancer cells both in vitro and in vivo
